Reference: US11788147B2, “Markers of triple-negative breast cancer and uses thereof” (Vanderbilt University, priority 2011, dated 2023)

Assays:
[1] = test system: heterogeneous TNBC patient population; details: neoadjuvant, single agent; cited from earlier work
[2] = test system: HCC1806 and MDA-MB-468 xenograft tumors; assay: Xenograft tumor studies (Example 1), basal-like; format: in vivo, mice; details: cisplatin i.p. 8 mg/kg/wk, approximately 3 weeks, relative to vehicle control; P<0.0001
Experimental: Xenograft tumor studies. Five-week-old female athymic nude-Foxnlnu mice (Harlan Sprague-Dawley) were injected (s.c.) with either approximately 5×10^6 (CAL-51, HCC1806, MDA-MB-468, and SUM185PE) or approximately 10×10^6 (CAL-148 and SUM159PT) cells suspended in medium (200 μl) into each flank using a 22-gauge needle. The protocols describing the process of xenograft tumor formation in athymic mice were reviewed and approved by the Vanderbilt Institutional Review Board. Once tumors reached a volume of 25-50 mm^3, mice were randomly allocated to treatment or vehicle arms. Treatments included bicalutamide per oral (100 mg/kg/d), cisplatin i.p. (8 mg/kg/wk), or NVP-BEZ235 per oral (50 mg/kg/d) in 1:9 N-methylpyrolidone: PEG300. Tumor diameters were serially measured at the indicated times with digital calipers, and tumor volumes were calculated as width^2×length/2. Data points reflect the means and SEM for 16 tumors per treatment.

LAR TNBC cell lines = assay: Cell proliferation/viability assay (alamarBlue) and IC50 determination; format: cell-based, human; details: LAR lines, 72 hours
Experimental: Cell proliferation/viability assays and IC50 determinations. All cell lines and culture conditions used can be found in Supplemental Methods (Table 5). Short tandem repeat (STR) DNA fingerprinting analysis was performed on all TNBC cell lines used in this study (Cell Line Genetics). […] Breast cancer cell lines and HMECs were seeded (3,000-10,000 cells) in quadruplicate wells in 96-well plates. […] Medium was then replaced with either fresh medium (control) or medium containing half-log serial dilutions of the following drugs: 0.3-30 μM olaparib (ChemieTek), 0.3-30 μM veliparib (ChemieTek), 1-100 μM bicalutamide (IPR Pharmaceutical), 0.3-30 μM cisplatin (APP Pharmaceutical), 3-300 nM NVP-BEZ235 (Chemdea), 10-1000 nM 17-DMAG (ChemieTek), and 0.1-10 μM dasatinib (LC Laboratories). Viability was determined from measuring fluorescent intensity after metabolic reduction of alamarBlue in the presence/absence of the drug after 72 hours. Viability assays were performed in triplicate, and replicates were normalized to untreated wells. […] For analysis of cell-line drug assays, data generated from the different cell lines representative of TNBC subtypes were compared using the nonparametric Mann-Whitney U test. All analyses and graphic representations were performed using Prism software (version 4.0c; GraphPad Software), and values are represented as the mean±SEM.

N.N.[Cl][Pt][Cl] [cisplatin]
pCR [1]: 21% | xenograft tumor growth [2]: significantly growth inhibited | IC50 (LAR TNBC cell lines): 15 µM
